Experimental data published in ChEMBL document CHEMBL1201862, “PubChem BioAssay data set” (2004).
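Growth conditions: 96-well plates. Treatment: test compound, 48 hours, 5 concentrations. Analysis: linear interpolation between bracketing concentrations; unreached endpoints set to highest concentration. Here, GI50 denotes the concentration required for 50% inhibition of growth.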 Activity calls are given as the source filed them. No stated cut-off is given here; in the data, active = GI50 up to about 1.1 µM and inactive = higher.

Tests used:
Test in all cases: inhibition of tumour cell growth, NCI panel, 48 h
A498 = test system: A498
A549 = test system: A549
K562 = test system: K562
MCF7 = test system: MCF7
MDA-MB-231 = test system: MDA-MB-231
NCI-H460 = test system: NCI-H460
NCI/ADR-RES = test system: NCI/ADR-RES
OVCAR-4 = test system: OVCAR-4
RPMI-8226 = test system: RPMI-8226
SF-268 = test system: SF-268
SF-539 = test system: SF-539
SK-MEL-2 = test system: SK-MEL-2
SK-MEL-5 = test system: SK-MEL-5
SK-OV-3 = test system: SK-OV-3
SNB-75 = test system: SNB-75
SR = test system: SR
T47D = test system: T47D
TK-10 = test system: TK-10
UACC-257 = test system: UACC-257
HOP-92 = test system: HOP-92

Structure (SMILES): Nc1nc(SC/C=C/c2ccccc2)c2[nH]cnc2n1
- GI50 (A498): > 100 µM (inactive)
- GI50 (A549): > 100 µM (inactive)
- GI50 (K562): 63.2 µM (inactive)
- GI50 (MCF7): > 100 µM (inactive)
- GI50 (MDA-MB-231): > 100 µM (inactive)
- GI50 (NCI-H460): 72.1 µM (inactive)
- GI50 (NCI/ADR-RES): 48.9 µM (inactive)
- GI50 (OVCAR-4): > 100 µM (inactive)
- GI50 (RPMI-8226): 91.4 µM (inactive)
- GI50 (SF-268): 74.8 µM (inactive)
- GI50 (SF-539): > 100 µM (inactive)
- GI50 (SK-MEL-2): 91 µM (inactive)
- GI50 (SK-MEL-5): > 100 µM (inactive)
- GI50 (SK-OV-3): > 100 µM (inactive)
- GI50 (SNB-75): 28.6 µM (inactive)
- GI50 (SR): 45.7 µM (inactive)
- GI50 (T47D): > 100 µM (inactive)
- GI50 (TK-10): 22.4 µM (inactive)
- GI50 (UACC-257): > 100 µM (inactive)

Structure (SMILES): CNc1ccc2nc(-c3ccc(OC(=O)N(C)C)cc3)cn2c1
- GI50 (A498): 17.5 µM (inactive)
- GI50 (A549): 16.9 µM (inactive)
- GI50 (HOP-92): 22.6 µM (inactive)
- GI50 (K562): 21 µM (inactive)
- GI50 (MCF7): 20.7 µM (inactive)
- GI50 (MDA-MB-231): 17.1 µM (inactive)
- GI50 (NCI-H460): 17.5 µM (inactive)
- GI50 (NCI/ADR-RES): 23.3 µM (inactive)
- GI50 (OVCAR-4): 17.5 µM (inactive)
- GI50 (SF-268): 16.5 µM (inactive)
- GI50 (SK-MEL-2): 14 µM (inactive)
- GI50 (SK-MEL-5): 23.1 µM (inactive)
- GI50 (SK-OV-3): 19 µM (inactive)
- GI50 (SR): 19.1 µM (inactive)
- GI50 (T47D): 22.2 µM (inactive)
- GI50 (TK-10): 17.9 µM (inactive)
- GI50 (UACC-257): 50.4 µM (inactive)

Structure (SMILES): CCCCCCCCCC[C@@H](O)[C@@H]1CC[C@@H]([C@@H]2CC[C@@H]([C@@H](O)CCCCCCCCCCC(O)CC3=CC(C)OC3=O)O2)O1 (stereo partly drawn)
- GI50 (A498): 5.61 µM (inactive)
- GI50 (A549): 2.53 µM (inactive)
- GI50 (K562): 0.248 µM (active)
- GI50 (MCF7): 1.36 µM (inactive)
- GI50 (MDA-MB-231): 2.32 µM (inactive)
- GI50 (NCI-H460): 1.28 µM (inactive)
- GI50 (NCI/ADR-RES): 0.729 µM (active)
- GI50 (OVCAR-4): 1.38 µM (inactive)
- GI50 (RPMI-8226): 1.26 µM (inactive)
- GI50 (SF-268): > 10 µM (inactive)
- GI50 (SF-539): > 10 µM (inactive)
- GI50 (SK-MEL-5): 0.333 µM (active)
- GI50 (SK-OV-3): > 10 µM (inactive)
- GI50 (SNB-75): > 10 µM (inactive)
- GI50 (SR): 1.4 µM (inactive)
- GI50 (T47D): 0.984 µM (active)
- GI50 (TK-10): > 10 µM (inactive)
- GI50 (UACC-257): 2.42 µM (inactive)

Structure (SMILES): COc1ccc(C2C3CCc4ccccc4C3=NN2S(=O)(=O)c2ccc(Cl)cc2)cc1 (stereo not drawn)
- GI50 (A549): 27.9 µM (inactive)
- GI50 (HOP-92): 20 µM (inactive)
- GI50 (K562): 4.98 µM (inactive)
- GI50 (MCF7): 4.13 µM (inactive)
- GI50 (MDA-MB-231): 17.1 µM (inactive)
- GI50 (NCI-H460): 15.8 µM (inactive)
- GI50 (NCI/ADR-RES): 5 µM (inactive)
- GI50 (OVCAR-4): 30.3 µM (inactive)
- GI50 (RPMI-8226): 14 µM (inactive)
- GI50 (SF-268): 18.4 µM (inactive)
- GI50 (SF-539): 18.3 µM (inactive)
- GI50 (SK-MEL-2): 28.4 µM (inactive)
- GI50 (SK-MEL-5): 16 µM (inactive)
- GI50 (SK-OV-3): 0.0995 µM (active)
- GI50 (SR): 3.01 µM (inactive)
- GI50 (T47D): 10.7 µM (inactive)
- GI50 (TK-10): 32.4 µM (inactive)
- GI50 (UACC-257): 17.3 µM (inactive)

Structure (SMILES): N#CC12C(=O)N3C(=NC(c4ccco4)NC3c3ccco3)C1(C#N)C(c1ccco1)NC1=C2CCCC1 (stereo not drawn)
- GI50 (A498): > 100 µM (inactive)
- GI50 (A549): > 100 µM (inactive)
- GI50 (HOP-92): > 100 µM (inactive)
- GI50 (K562): > 100 µM (inactive)
- GI50 (MCF7): > 100 µM (inactive)
- GI50 (MDA-MB-231): > 100 µM (inactive)
- GI50 (NCI-H460): > 100 µM (inactive)
- GI50 (NCI/ADR-RES): > 100 µM (inactive)
- GI50 (OVCAR-4): > 100 µM (inactive)
- GI50 (RPMI-8226): > 100 µM (inactive)
- GI50 (SF-268): > 100 µM (inactive)
- GI50 (SK-MEL-2): > 100 µM (inactive)
- GI50 (SK-MEL-5): > 100 µM (inactive)
- GI50 (SK-OV-3): > 100 µM (inactive)
- GI50 (SR): > 100 µM (inactive)
- GI50 (T47D): > 100 µM (inactive)
- GI50 (TK-10): > 100 µM (inactive)
- GI50 (UACC-257): > 100 µM (inactive)

Structure (SMILES): O=NN1CCNC1Cc1ccccc1 (stereo not drawn)
- GI50 (A549): > 100 µM (inactive)
- GI50 (HOP-92): > 100 µM (inactive)
- GI50 (K562): > 100 µM (inactive)
- GI50 (MCF7): 37.2 µM (inactive)
- GI50 (MDA-MB-231): > 100 µM (inactive)
- GI50 (NCI-H460): 38.7 µM (inactive)
- GI50 (NCI/ADR-RES): > 100 µM (inactive)
- GI50 (OVCAR-4): > 100 µM (inactive)
- GI50 (RPMI-8226): 70 µM (inactive)
- GI50 (SF-268): 43.4 µM (inactive)
- GI50 (SF-539): 48.9 µM (inactive)
- GI50 (SK-MEL-5): 72.6 µM (inactive)
- GI50 (SK-OV-3): 75.2 µM (inactive)
- GI50 (SNB-75): 18.3 µM (inactive)
- GI50 (SR): 23.8 µM (inactive)
- GI50 (T47D): 47.1 µM (inactive)
- GI50 (TK-10): > 100 µM (inactive)
- GI50 (UACC-257): > 100 µM (inactive)
